# Laboratory results from patent publication EP1566447A1, “Glimepiride- and insulin-induced glycosylphosphatidylinositol-specific phospholipase C regulation” (priority 2004, dated 2005).
# Entries after “also recorded” stand apart in the source; their conditions may differ.
# Assays:
# [1] = test system: GPI-PLC of hcDIGs from rat adipocytes; assay: adipocyte GPI-PLC assay (cleavage of AChE, TX-114 partitioning); type: biochemical
# Procedure: Biophys. […] Each reaction mixture was subjected to TX-114 partitioning (see below).
# After incubation for 1 h on ice, the mixture was layered onto a cushion of 0.4 ml of 0.25 M sucrose and 25 mM Tris/HCl (pH 7.4) on ice.
# Cleavage rate was calculated from the amount of hydrophilic AChE and aP activity recovered with the TX-114-depleted phase upon TX-114 partitioning.
# [2] = target: T1, Hormone-sensitive lipase (HSL) (Homo sapiens, UniProt Q05469); assay: selectivity: hormone-sensitive lipase assay; type: biochemical; conditions: 50 µM
# T1 sequence (Q05469 1-1076): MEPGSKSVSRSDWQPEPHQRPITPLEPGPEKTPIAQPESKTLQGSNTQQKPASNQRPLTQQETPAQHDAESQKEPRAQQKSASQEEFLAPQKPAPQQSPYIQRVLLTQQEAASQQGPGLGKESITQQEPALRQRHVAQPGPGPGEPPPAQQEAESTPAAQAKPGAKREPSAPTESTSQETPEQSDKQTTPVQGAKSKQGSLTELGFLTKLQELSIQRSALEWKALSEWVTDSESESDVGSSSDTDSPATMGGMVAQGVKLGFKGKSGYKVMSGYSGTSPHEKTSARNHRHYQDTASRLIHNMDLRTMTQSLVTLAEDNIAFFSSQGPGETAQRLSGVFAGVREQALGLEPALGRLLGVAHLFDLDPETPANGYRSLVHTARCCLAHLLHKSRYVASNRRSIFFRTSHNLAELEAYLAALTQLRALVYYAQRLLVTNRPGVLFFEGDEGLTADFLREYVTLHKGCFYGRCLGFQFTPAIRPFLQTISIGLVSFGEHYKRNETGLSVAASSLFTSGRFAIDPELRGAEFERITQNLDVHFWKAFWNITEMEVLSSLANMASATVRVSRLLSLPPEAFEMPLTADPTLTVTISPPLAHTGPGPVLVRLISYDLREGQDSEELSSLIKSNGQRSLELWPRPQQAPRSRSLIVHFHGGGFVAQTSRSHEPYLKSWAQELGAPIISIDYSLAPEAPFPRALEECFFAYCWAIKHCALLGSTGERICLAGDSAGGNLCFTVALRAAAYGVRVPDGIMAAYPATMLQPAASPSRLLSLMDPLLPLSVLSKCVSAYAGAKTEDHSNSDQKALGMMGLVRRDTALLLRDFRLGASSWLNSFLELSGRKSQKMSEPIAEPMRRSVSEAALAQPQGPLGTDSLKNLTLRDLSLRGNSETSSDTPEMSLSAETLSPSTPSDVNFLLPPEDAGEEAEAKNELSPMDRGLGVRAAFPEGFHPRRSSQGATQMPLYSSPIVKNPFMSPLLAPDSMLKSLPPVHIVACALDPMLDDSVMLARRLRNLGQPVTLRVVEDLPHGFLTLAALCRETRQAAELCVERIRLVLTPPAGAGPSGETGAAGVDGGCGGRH
# Procedure: Hormone-sensitive lipase (HSL) and lipoprotein lipase (LPL) were measured using a radiolabeled triolein droplet emulsion as described in "Vertesy et al., (2002) Journal Antibiotics 55:480-494". Pancreatic lipase (PL) was determined by incubation of 0.25 mmol tributyrin in 2 ml of 5 mM Tris/HCl (pH 6.5), 6 mM sodium taurodeoxycholate, 150 mM NaCl, 1 mM CaCl2 with porcine PL and colipase in the same buffer using a recording pH stat (stirring at 1000 rpm at 25°C) with the pH adjusted to 6.5. PC-PLC was assayed by incubation of 0.2 ml of 10 mM dipalmitoyllecithin, 0.1 ml of 10 mM SDC and 0.1 ml of 0.03 M CaCl2 with bacterial PC-PLC (in 50 mM Tris/HCl, pH 7.5, 0.1 % BSA) for 10 min at 37°C. The reaction was terminated by addition of 0.1 ml of 50 % TCA and subsequently of 2.5 ml of […]. After centrifugation (1500xg, 15 min), 0.2-ml portions of the upper methanol/water phase (~ 1.33 ml) was removed, supplemented with 0.5 ml of 60 % HClO4, then heated at 170°C for 1 h and finally analyzed for inorganic phosphate. Mammalian PI-PLC was measured by incubation of 0.1 ml of 10 mM PI, 0.1 ml of 0.8 % sodium deoxycholate, 0.1 % BSA, 0.2 ml of 100 mM sodium borate (pH 7.5) and rat liver PI-PLC for 20 min at 37°C. The reaction was terminated and further processed as described for the PC-PLC. […] Radioactive phosphatidic acid was detected by phosphorimaging. […]
# [3] = target: phospholipase A2 (honey bee venom) (Apis mellifera, UniProt P00630); type: biochemical; conditions: 50 µM
# Sequence of phospholipase A2 (honey bee venom) (P00630 34-167 limits assumed): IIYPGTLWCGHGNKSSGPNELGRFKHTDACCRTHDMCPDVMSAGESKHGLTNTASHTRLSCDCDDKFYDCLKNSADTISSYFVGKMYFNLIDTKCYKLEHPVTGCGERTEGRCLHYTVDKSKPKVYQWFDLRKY
# Isolated rat adipocytes = assay: glimepiride-induced redistribution of signaling proteins within DIGs; type: cell-based; conditions: max. effective conc. (50 µM)
smiles,measurement,setting,value
"CCCCCCCCCCCCP1(=O)O[C@@H]2[C@H](O)[C@@H](O)[C@H](O)[C@@H](O)[C@@H]2O1 (mixture of isomers) [GPI-2350, myo-inositol-1,2-cyclo-dodecylphosphonic acid]",inhibition % at 1 mM,"[1]; 1 mM, hcDIGs from rat adipocytes",95 ± 11%
same,IC50,"[1]; hcDIGs from rat adipocytes, inhibitor 0.05 µM - 1 mM",0.2 to 0.5 µM
same,lipolytic cleavage toward AChE after pretreatment and washing,"[1]; hcDIGs treated with 50 µM, reisolated, extensively washed, assayed without inhibitor, data not shown",only low lipolytic cleavage
same,effect on lipase activity,[2],not significantly affected
same,effect on phospholipase activity,[3],not significantly affected
same,effect on glimepiride-induced redistribution from hcDIGs to IcDIGs,Isolated rat adipocytes,almost complete blockade; also recorded: almost completely abolished
